Results on 1 molecule are retold here after US11180475B2, “Crystal form I of a 5-aminopyrazole carboxamide compound as BTK inhibitor” (SinoMab BioScience Limited, priority 2017, dated 2021).

What is called bioavailability is dose-corrected exposure relative to a reference, in per cent. As a reminder, the pIC50 is −log10 of the IC50, conventionally taken in molar units.

A short description of one series: Pharmacokinetics in rats. It counts as in vivo. The conditions noted are these: rat, plasma, oral; male SD rats, p.o. 10 mg/kg vs i.v. 2 mg/kg. On the procedure: 1. Male SD rats (HFK) were acclimatized in the laboratory for 7 days after arrival.
2. […], 3 animals in each group. One group was dosed by oral gavage (p.o.), and the other group was dosed by tail vein injection (i.v.). Rats in the p.o. group were fasted overnight before drug administration.
3. After drug administration, blood samples were collected from the rats via the posterior orbital venous plexus approach at the following time points: I.V.: (before drug administration), 0.08 hours, 0.25 hours, 0.5 hours, 1 hour, 2 hours, 4 hours, 8 hours, 24 hours; P.O.: 0.08 hour, 0.25 hour, 0.5 hour, 1 hour, 2 hours, 4 hours, 8 hours, 24 hours. About 300 μl of blood were collected at each collection time point.
4. The collected blood samples were centrifuged at 12000 rpm for 5 minutes at 4° C., and then the upper plasma samples were collected and stored in a refrigerator at −20° C.
6. […]
The pharmacokinetic parameters were calculated using the pharmacokinetic professional software WinNonlin [Model: Phoenix™ WinNonlin® 6.1; Manufacturer: Pharsight Corporation]. […]

In series [1] the test system is five CYP450 enzymes in human liver microsomes. The series can be described thus: Inhibition of CYP enzymes, cocktail probe substrates. It counts as in vitro ADME. The conditions noted are these: CYP1A2, CYP2D6, CYP2C9, CYP2C19, CYP3A4. Here is the method: METHOD: This experiment simultaneously determined the inhibitory effects of a compound on five CYP450 enzymes in human liver microsomes using the cocktail probe substrates approach. The human microsomes were from BD Gentest.
The reaction was carried out in 100 mM of phosphate buffer, with a total volume of 200 μL. The concentration of microsomes in the reaction system was 0.25 mg/mL, and the concentration of the test compound was 20 μM, 6.67 μM, 2.22 μM, 0.74 μM, and 0.25 μM. The specific probe substrates and concentration were phenacetin (CYP1A2) 40 μM, dextromethorphan (CYP2D6) 5 μM, diclofenac (CYP2C9) 10 μM, S-mephenytoin (CYP2C19) 40 μM, testosterone (CYP3A4) 80 μM, respectively. The mixture was pre-incubated in a 37° C. thermostatic shaker for 5 minutes, and the NADPH-generating system (containing 1.3 mM NADP+, 3.3 mM glucose 6-phosphate, […] glucose 6-phosphate dehydrogenase, 3.3 mM MgCl2) was added to start the reaction. After incubation for 45 minutes, the reaction was stopped by adding an equal volume of acetonitrile. The tube was vortexed and centrifuged at 13,000 rpm. The resulting supernatant was subjected to LC-MS-MS to determine the amount of produced metabolites. […] The final result of this experiment is the calculated half inhibitory concentration IC50 value.

Series [2] deals with B cells in human whole blood. As to the kind of experiment: Inhibition assay on human whole blood B cells (CD69). It counts as cell-based. The conditions noted are these: B-cell, anti-human IgM F(ab')2 stimulation 20 hours, read-out: IC50, inhibitory activity on B cells in human whole blood. Here is the method:
Human whole blood (hWB) was obtained from healthy volunteers and blood was collected by venipuncture into a heparin sodium-anticoagulant Vacutainer tube. Test compounds were diluted 10 times in PBS to the required initial drug concentration), followed by three-fold serial dilutions with 10% DMSO in PBS to obtain a 9-point dose response curve. 5.5 μL of each diluted compound was added to the aiil 96-well V-bottom plate in duplicate; 5.5 μL of 10% DMSO in PBS was added to control and non-stimulated wells. Human whole blood (100 μL) was added to each well, and after mixing, the plates were incubated for 30 minutes at 37° C. and in 5% CO2, 100% humidity. An anti-human IgM F(ab′)2 (Southern Biotech) (10 μL of 500 μg/mL solution, 50 μg/mL final concentration) was added to each well (except for non-stimulated wells) with vortexing, and the plate was further incubated for another 20 hours. After 20-hour incubation, samples were incubated with 20 μL of fluorescent probe-labeled APC mouse anti-human CD69 (BD Pharmingen) for 30 minutes at 37° C., 5% CO2, 100% humidity. Induced controls, unstained, and single-stained samples were included for compensation and initial voltage settings. […] Results were initially analyzed using FACS analysis software (Flow Jo). The IC50 values were then calculated using XLfit v3, Equation 201.

For the next series, the system named is normal human B cells. The series can be described thus: B cell inhibition assay (CD69, flow cytometry). It counts as cell-based. The conditions noted are these: 1 hour exposure, washed off, IgM F(ab')2 stimulation 18 hours, read-out: IC50, inhibitory activity on B cells. On the procedure: Temporary exposure to a BTK inhibitor in vitro is sufficient to inhibit B cell activation in normal human B cells.
B cells were obtained by purification from healthy donor blood through negative selection using the RosetteSep human B Cell Enrichment Mix. Cells were plated in a growth medium (10% RPMI+10% fetal bovine serum) and the inhibitor was added at specified concentrations. After incubation at 37° C. for 1 hour, the cells were washed three times, and each wash was used for 8-fold dilution in the growth medium. The cells were then stimulated with 10 μg/mL IgM F(ab′)2 at 37° C. for 18 hours. Cells were subsequently stained with an anti-CD69-PE antibody and analyzed by flow cytometry using standard conditions.

Series [3] concerns diffuse large B-cell lymphoma cell line TMD-8. The series can be described thus: Pharmacodynamic assay, TMD-8 xenograft. It counts as in vivo. The conditions noted are these: NOD.SCID mice, p.o. daily for 21 days. On the procedure:
Severe immunodeficiency NOD.SCID mice were purchased from Beijing Vital River Laboratory Animal Technology Co., Ltd., and were housed in SPF grade animal room. After TMD-8 cells were cultured to the sufficient amount, the cells were collected by centrifugation and washed twice with PBS. Finally, the cells were resuspended in serum-free RPMI 1640 medium and Matrigel (1:1 v/v). 0.2 ml of cell suspension was injected subcutaneously on the right flank of each mouse using 1 ml syringe and 25G syringe needle. The tumor size was measured with a caliper after about one week post injection. The tumor volume was calculated according to the following formula: tumor volume=(length×width^2)/2. When the tumor volume reached about 100-200 mm^3, the mice were grouped and p.o. administered daily for 21 days.

Series [4] is described as follows: Stability study in liver microsomes. Format: in vitro ADME, human, dog, rat, and mouse. The conditions noted are these: 60 minutes incubation, 37° C., liver microsomes of various species. Here is the method:
1. Compound (R)-5-amino-3-(4-((5-chloropyridin-2-yl)oxy)phenyl)-1-(4-cyano-4-azaspiro[2.5]oct-6-yl)-1H-pyrazole-4-carboxamide (I) was dissolved in acetonitrile to prepare a stock solution having a concentration of 0.5 mM.
2. 2 μL of stock solution was added to a 1.5 ml centrifuge tube, and then 148 μL of phosphate buffer (100 mM, pH 7.4) and 10 μL of liver microsome suspension (the protein concentration was 20 mg/ml) [BD Gentest] were added. The liver microsomes were derived from the species of human, dog, rat, and mouse; The control group was added with 158 μL of phosphate buffer (100 mM, pH 7.4).
3. The mixture obtained in step 2 was pre-incubated in a 37° C. water bath for 3 minutes; then 40 μL of NADPH generating system (containing NADP+: 6.5 mM, glucose 6-phosphate: 16.5 mM, MgCl2: 16.5 mM, glucose 6-phosphate dehydrogenase: 2 U/ml) was added to initiate the reaction. The reaction system was incubated in a 37° C. water bath for 1 hour.
4. After the reaction was carried out for 1 hour, the centrifuge tube was removed from the water bath, and the reaction was terminated by adding 400 μL of acetonitrile, followed by vortexing for 3 minutes. […]
6. After 60 minutes of incubation, the percentage of remaining drug in the incubation system was calculated as follows: Remaining Drug (%)=Cr/C0×100%
On the technique in general: Liver microsomes are a subcellular fraction often used to study metabolism.

A further series deals with hERG (Homo sapiens, UniProt Q12809). As to the kind of experiment: hERG binding assay (Dofetillide method). The conditions noted are these: read-out: IC50 for hERG inhibition. The text has this: The IC50 value of a compound for hERG inhibition can be determined according to the method described in the patent application US20050214870 A1.
Sequence of hERG (Q12809 whole entry): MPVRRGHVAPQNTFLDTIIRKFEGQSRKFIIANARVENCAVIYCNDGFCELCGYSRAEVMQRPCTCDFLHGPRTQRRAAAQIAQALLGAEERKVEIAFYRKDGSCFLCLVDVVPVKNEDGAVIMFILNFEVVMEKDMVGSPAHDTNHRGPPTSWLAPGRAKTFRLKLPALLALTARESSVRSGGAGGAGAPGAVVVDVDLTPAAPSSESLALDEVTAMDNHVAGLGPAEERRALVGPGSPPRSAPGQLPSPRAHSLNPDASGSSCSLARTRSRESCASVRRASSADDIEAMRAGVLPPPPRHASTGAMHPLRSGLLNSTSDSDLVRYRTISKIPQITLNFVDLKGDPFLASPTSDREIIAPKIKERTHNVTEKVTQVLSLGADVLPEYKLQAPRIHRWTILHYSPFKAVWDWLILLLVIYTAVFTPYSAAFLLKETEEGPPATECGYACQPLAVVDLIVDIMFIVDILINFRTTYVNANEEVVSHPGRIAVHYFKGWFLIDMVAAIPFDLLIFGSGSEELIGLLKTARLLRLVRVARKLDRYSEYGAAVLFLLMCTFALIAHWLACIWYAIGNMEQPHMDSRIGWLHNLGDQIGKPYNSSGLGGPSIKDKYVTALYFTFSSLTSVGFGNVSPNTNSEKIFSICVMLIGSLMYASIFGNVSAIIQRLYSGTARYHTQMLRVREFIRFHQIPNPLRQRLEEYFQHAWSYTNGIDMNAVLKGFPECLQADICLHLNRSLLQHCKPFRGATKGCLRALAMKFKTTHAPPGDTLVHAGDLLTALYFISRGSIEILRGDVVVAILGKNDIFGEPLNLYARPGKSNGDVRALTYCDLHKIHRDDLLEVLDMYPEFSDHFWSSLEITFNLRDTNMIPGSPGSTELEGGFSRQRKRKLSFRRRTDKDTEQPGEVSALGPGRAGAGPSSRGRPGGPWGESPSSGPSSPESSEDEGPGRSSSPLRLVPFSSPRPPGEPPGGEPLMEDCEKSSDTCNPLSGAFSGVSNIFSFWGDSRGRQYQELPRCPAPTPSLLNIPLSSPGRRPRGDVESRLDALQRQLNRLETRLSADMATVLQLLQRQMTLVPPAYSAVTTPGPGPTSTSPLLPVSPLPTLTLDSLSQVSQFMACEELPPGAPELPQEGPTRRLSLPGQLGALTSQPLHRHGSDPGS
For orientation: hERG is a cardiac potassium channel; its block is linked to QT prolongation.

A further series deals with Recombinant Btk (Homo sapiens, UniProt Q06187). As to the kind of experiment: Kinase activity (BTK) inhibition assay, TR-FRET. Format: biochemical. The conditions noted are these: read-out: IC50, inhibitory effect on BTK kinase activity. On the procedure:
The inhibitory effects of compound (R)-5-amino-3-(4-((5-chloropyridin-2-yl)oxy)phenyl)-1-(4-cyano-4-azaspiro[2.5]oct-6-yl)-1H-pyrazole-4-carboxamide (I) on BTK kinase activity were tested in an assay based on a time resolved fluorescence resonance energy transfer (TR-FRET) method. Recombinant Btk was pre-incubated with the compound disclosed herein in an assay buffer containing 50 mM Tris pH 7.4, 10 mM MgCl2, 2 mM MnCl2, 0.1 mM EDTA, 1 mM DTT, 20 nM SEB, 0.1% BSA, 0.005% tween-20 at room temperature for 1 hour. The reaction was initiated by the addition of ATP (at the ATP Km concentration) and the peptide substrate (Biotin-[…]-NH2). After incubation at room temperature for 1 hour, an equal volume of stop solution containing 50 mM HEPES pH 7.0, 800 mM KF, 20 mM EDTA, 0.1% BSA, p-Tyr66 antibody linked with Eu cryptate and streptavidin-labeled XL665 was added to stop the reaction. The plate was incubated at room temperature for an additional hour and then the TR-FRET signal was read on a BMG PHERAstar FS instrument (ex337 nm, em 620 nm/665 nm). Based on the ratio of the signal of fluorescence at 615 nm to 665 nm, the residual enzyme activity was calculated with an increased compound concentration. IC50 of each compound was obtained by fitting the data to the four-parameter equation of Graphpad Prism software.
Background: In TR-FRET formats the signal depends on donor and acceptor labels being close together.

Another series has as its system T cells. As to the kind of experiment: T cell inhibition assay (CD69, flow cytometry). It counts as cell-based. The conditions noted are these: Homo sapiens, 1 hour exposure, washed, anti-CD3/CD28 beads 18 hours, read-out: IC50, inhibitory activity on T cells. Here is the method:
T cells were obtained by purification of healthy donor blood through negative selections using the RosetteSep Human T Cell Enrichment Mix. Cells were plated in a growth medium (10% RPMI+10% fetal bovine serum) and the inhibitor was added at specified concentrations. After incubating for 1 hour at 37° C., the cells were washed three times, and each wash was used for 10-fold dilution in the growth medium. The cells were then stimulated with anti-CD3/CD28 coated beads (bead/cell ratio 1:1) for 18 hours at 37° C. Cells were subsequently stained with an anti-CD69-PE antibody and analyzed by flow cytometry using standard conditions. According to the above experimental methods, compound (R)-5-amino-3-(4-((5-chloropyridin-2-yl)oxy)phenyl)-1-(4-cyano-4-azaspiro[2.5]oct-6-yl)-1H-pyrazole-4-carboxamide (I) has very low or no inhibitory activity on T cells, with an IC50 values higher than 4000 nM.

pIC50: −log10 of the molar value.

Sequence of Recombinant Btk (Q06187 whole entry): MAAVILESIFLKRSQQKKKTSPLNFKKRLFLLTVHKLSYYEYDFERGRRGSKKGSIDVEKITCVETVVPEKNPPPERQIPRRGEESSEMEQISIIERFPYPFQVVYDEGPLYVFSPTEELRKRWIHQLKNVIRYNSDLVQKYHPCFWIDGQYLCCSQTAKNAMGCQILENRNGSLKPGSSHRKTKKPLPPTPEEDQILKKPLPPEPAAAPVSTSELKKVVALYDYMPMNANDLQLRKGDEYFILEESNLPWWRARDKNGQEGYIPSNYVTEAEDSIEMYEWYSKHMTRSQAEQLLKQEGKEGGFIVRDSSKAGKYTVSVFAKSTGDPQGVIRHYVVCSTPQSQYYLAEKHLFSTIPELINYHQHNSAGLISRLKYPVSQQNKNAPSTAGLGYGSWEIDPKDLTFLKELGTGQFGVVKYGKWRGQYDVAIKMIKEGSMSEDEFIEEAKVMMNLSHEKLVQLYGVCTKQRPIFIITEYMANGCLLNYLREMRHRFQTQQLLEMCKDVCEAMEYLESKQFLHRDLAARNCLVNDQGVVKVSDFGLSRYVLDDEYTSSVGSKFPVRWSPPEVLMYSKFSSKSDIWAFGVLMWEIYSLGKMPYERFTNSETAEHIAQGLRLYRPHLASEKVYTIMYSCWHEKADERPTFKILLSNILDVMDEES

In the series “Pharmacokinetics in rats”, `N#CN1C[C@H](n2nc(-c3ccc(Oc4ccc(Cl)cn4)cc3)c(C(N)=O)c2N)CCC12CC2` [Compound I, (R)-5-amino-3-(4-((5-chloropyridin-2-yl)oxy)phenyl)-1-(4-cyano-4-azaspiro[2.5]oct-6-yl)-1H-pyrazole-4-carboxamide] displayed a bioavailability above 40%. The “inhibitory effect on various CYP enzymes” value in series [1] is recorded as “very low or no inhibitory effect”. In addition, the pIC50 was above 6.70 in [2]; above 8.00 with normal human B cells; below 6.00 at hERG; above 7.00 on Recombinant Btk; below 5.40 in the series on T cells. In addition, in [3], the “inhibition of TMD-8 tumor growth in vivo” value is given as “significantly inhibited the growth”. For the same molecule, the “Remaining Drug (%), residual percentage in liver microsomes” value in [4] is above 30%.
